Experimental data as given in ChEMBL document CHEMBL4732091, “Design, synthesis and biological evaluation of novel thiosemicarbazone-indole derivatives targeting prostate cancer cells” (Eur J Med Chem, 2021).
Activity calls are given as the source filed them. No cut-off for these calls is given here.

Key:
PC-3 [1] = assay: Antiproliferative activity against human PC-3 cells assessed as inhibition of cell proliferation measured after 24 to 72 hrs by MTT assay; format: functional, cell-based; conditions: dose 0.156-20 µM, time 24-72 hrs
ECa-109 cell line = assay: Antiproliferative activity against human ECa-109 cell line cells assessed as inhibition of cell proliferation measured after 72 hrs by MTT assay; format: functional, cell-based; conditions: ECa-109, 72 h
PC-3 [2] = assay: Antiproliferative activity against human PC-3 cells assessed as inhibition of cell proliferation measured after 72 hrs by MTT assay; format: functional, cell-based; conditions: PC-3, 72 h
DU-145 [3] = assay: Induction of ROS generation in human DU-145 cells assessed as increase in intracellular ROS level measured after 48 hrs by DCFH-DA staining based flowcytometry method; format: functional, cell-based; conditions: dose 0.5-2 µM
PC-3 [4] = assay: Antitumour activity against human PC-3 cells xenografted in BALB/c-NU mouse assessed as reduction in tumour growth at 25 mg/kg, IG qd measured after 21 days relative to control; format: functional; design: scale not given: the % may be the effect or the level left; conditions: time 21 day
DU-145 [5] = assay: Induction of ROS generation in human DU-145 cells assessed as intracellular ROS level at 6 uM measured after 48 hrs by DCFH-DA staining based flowcytometry method (reference value: 52 %); format: functional
MGC-803 = assay: Antiproliferative activity against human MGC-803 cell line cells assessed as inhibition of cell proliferation measured after 72 hrs by MTT assay; format: functional, cell-based; conditions: MGC-803, 72 h
DU-145 [6] = assay: Antiproliferative activity against human DU-145 cell line cells assessed as inhibition of cell proliferation measured after 72 hrs by MTT assay; format: functional, cell-based; conditions: DU-145, 72 h
DU-145 [7] = assay: Induction of apoptosis in human DU-145 cells assessed as necrotic cells at 2 uM measured after 72 hrs by Annexin V-FITC/propidium iodide staining based flow cytometry method (reference value: 1.13 %); format: functional
DU-145 [8] = assay: Induction of apoptosis in human DU-145 cells assessed as viable cells at 0.5 uM measured after 72 hrs by Annexin V-FITC/propidium iodide staining based flow cytometry method (reference value: 96.3 %); format: functional; conditions: read-out: Activity
DU-145 [9] = assay: Induction of apoptosis in human DU-145 cells assessed as viable cells at 1 uM measured after 72 hrs by Annexin V-FITC/propidium iodide staining based flow cytometry method (reference value: 96.3 %); format: functional; conditions: read-out: Activity
[10] = Toxicity in C57BL/6 mouse assessed as effect on kidney at 2 mg/kg, IG measured after 2 weeks by hematoxylin and eosin staining based imaging analysis; format: organism-based; conditions: in vivo, po, 336 h
PC-3 [11] = assay: Induction of apoptosis in human PC-3 cells assessed as viable cells at 25 nM measured after 72 hrs by Annexin V-FITC/propidium iodide staining based flow cytometry method (reference value: 97.2 %); format: functional; conditions: read-out: Activity
PC-3 [12] = assay: Induction of apoptosis in human PC-3 cells assessed as late apoptotic cells at 100 nM measured after 72 hrs by Annexin V-FITC/propidium iodide staining based flow cytometry method (reference value: 1.01 %); format: functional
DU-145 [13] = assay: Activation of MAPK signaling in human DU-145 cells assessed as increase in phosphorylated p38 (Thr 180/Tyr 182) at 125 to 500 nM measured by Western blot assay; format: cell-based; conditions: filed as activator, dose 125-500 nM
DU-145 [14] = assay: Induction of apoptosis in human DU-145 cells assessed as reduction in Bcl-2 expression at 0.5 to 2 uM measured by Western blot assay; format: functional, cell-based; conditions: dose 0.5-2 µM
DU-145 [15] = assay: Antiproliferative activity against human DU-145 cells assessed as inhibition of cell proliferation measured after 24 to 72 hrs by MTT assay; format: functional, cell-based; conditions: dose 0.156-20 µM, time 24-72 hrs
PC-3 [16] = assay: Antiproliferative activity against human PC-3 cells assessed as inhibition of cell proliferation in presence of Fe3+ measured after 72 hrs by MTT assay; format: functional, cell-based
DU-145 [17] = assay: Induction of apoptosis in human DU-145 cells assessed as necrotic cells at 1 uM measured after 72 hrs by Annexin V-FITC/propidium iodide staining based flow cytometry method (reference value: 1.13 %); format: functional
PC-3 [18] = assay: Induction of ROS generation in human PC-3 cells assessed as intracellular ROS level at 125 nM measured after 48 hrs by DCFH-DA staining based flowcytometry method (reference value: 55.2 %); format: functional
PC-3 [19] = assay: Activation of MAPK signaling in human PC-3 cells assessed as increase in phosphorylated JNK (Thr 183/Tyr 185) at 125 to 500 nM measured by Western blot assay; format: cell-based; conditions: filed as activator, dose 125-500 nM
DU-145 [20] = assay: Induction of apoptosis in human DU-145 cells assessed as early apoptotic cells at 1 uM measured after 72 hrs by Annexin V-FITC/propidium iodide staining based flow cytometry method (reference value: 0.835 %); format: functional
DU-145 [21] = assay: Cytotoxicity against human DU-145 cells assessed as cell viability pre-treated with SB203580 for 4 hrs followed by compound treatment and measured after 72 hrs by MTT assay; format: functional, cell-based
PC-3 [22] = assay: Induction of apoptosis in human PC-3 cells assessed as necrotic cells at 50 nM measured after 72 hrs by Annexin V-FITC/propidium iodide staining based flow cytometry method (reference value: 1.2 %); format: functional
PC-3 [23] = assay: Induction of apoptosis in human PC-3 cells assessed as increased cleaved caspase 9/3 expression at 25 to 100 nM measured by Western blot assay; format: functional, cell-based; conditions: dose 25-100 nM
[24] = Toxicity in C57BL/6 mouse assessed as change in body weight at 2 mg/kg, IG measured after 2 weeks; format: organism-based; conditions: in vivo, po, 336 h
DU-145 [25] = assay: Activation of MAPK signaling in human DU-145 cells assessed as increase in phosphorylated JNK (Thr 183/Tyr 185) at 125 to 500 nM measured by Western blot assay; format: cell-based; conditions: filed as activator, dose 125-500 nM
PC-3 [26] = assay: Induction of cell cycle arrest in human PC-3 cells assessed as accumulation at G1/S phase at 125 nM measured after 48 hrs by propidium iodide staining based flowcytometry method (reference value: 19.23%); format: functional
PC-3 [27] = assay: Induction of ROS generation in human PC-3 cells assessed as increase in intracellular ROS level measured after 48 hrs by DCFH-DA staining based flowcytometry method; format: functional, cell-based; conditions: dose 25-100 nM
PC-3 [28] = assay: Antitumour activity against human PC-3 cells xenografted in BALB/c-NU mouse assessed as reduction in tumour growth at 12.5 mg/kg, IG qd measured after 21 days relative to control; format: functional; design: scale not given: the % may be the effect or the level left; conditions: time 21 day
PC-3 [29] = assay: Induction of apoptosis in human PC-3 cells assessed as early apoptotic cells at 25 nM measured after 72 hrs by Annexin V-FITC/propidium iodide staining based flow cytometry method (reference value: 0.452 %); format: functional
PC-3 [30] = assay: Antiproliferative activity against human PC-3 cells assessed as inhibition of cell proliferation at 0.156 to 20 uM by MTT assay; format: functional, cell-based; conditions: dose 0.156-20 µM, time 24-72 hrs, TDE = time-dependent effect
PC-3 [31] = assay: Induction of apoptosis in human PC-3 cells assessed as necrotic cells at 25 nM measured after 72 hrs by Annexin V-FITC/propidium iodide staining based flow cytometry method (reference value: 1.2 %); format: functional
DU-145 [32] = assay: Induction of ROS generation in human DU-145 cells assessed as intracellular ROS level at 1.5 uM measured after 48 hrs by DCFH-DA staining based flowcytometry method (reference value: 52 %); format: functional

With `Cc1ccc(/C=N/NC(=S)Nc2ccc(C(=O)NCCc3c(C)[nH]c4ccccc34)cc2)nc1` as the molecule, how does the inhibition (PC-3 [1]) read?
The inhibition was “Dose-dependent effect”.

And the IC50 (ECa-109 cell line)?
The IC50 was 4.94 µM.

What about the IC50 (PC-3 [2]) of the same molecule?
Its IC50 is 0.054 µM.

And the Activity (DU-145 [3])?
Its Activity is “Dose-dependent effect”.

And the Activity (PC-3 [4])?
Its Activity is 43.4%.

What about the Activity (DU-145 [5]) of the same molecule?
The Activity was 86.2%.

What about the IC50 (MGC-803) of the same molecule?
The IC50 was 4.72 µM.

What about the IC50 (DU-145 [6]) of the same molecule?
Its IC50 is 1.44 µM.

And the Activity (DU-145 [7])?
The Activity was 7.23%.

What about the viability at 0.5 µM (DU-145 [8]) of the same molecule?
The viability at 0.5 µM was 90.2%.

What about the viability at 1 µM (DU-145 [9]) of the same molecule?
The viability at 1 µM was 62.1%.

What about the Activity [10] of the same molecule?
The Activity was “Non-Toxic”.

And the viability at 0.025 µM (PC-3 [11])?
The viability at 0.025 µM was 98.5%.

And the Activity (PC-3 [12])?
The Activity was 56.2%.

What about the Activity (DU-145 [13]) of the same molecule?
The Activity was “Active”.

What about the Activity (DU-145 [14]) of the same molecule?
Its Activity is “Active”.

What about the inhibition (DU-145 [15]) of the same molecule?
The inhibition was “Dose-dependent effect”.

What about the inhibition (PC-3 [16]) of the same molecule?
The inhibition was “Active”.

And the Activity (DU-145 [17])?
Its Activity is 4.81%.

What about the Activity (PC-3 [18]) of the same molecule?
The Activity was 75.4%.

What about the Activity (PC-3 [19]) of the same molecule?
Its Activity is “Active”.

What about the Activity (DU-145 [20]) of the same molecule?
The Activity was 10.6%.

And the inhibition (DU-145 [21])?
The inhibition was “inactive”.

What about the Activity (PC-3 [22]) of the same molecule?
The Activity was 8.91%.

And the Activity (PC-3 [23])?
The Activity was “Active”.

And the Activity [24]?
The Activity was “Non-Toxic”.

And the Activity (DU-145 [25])?
The Activity was “Active”.

What about the Activity (PC-3 [26]) of the same molecule?
The Activity was 19.98%.

What about the Activity (PC-3 [27]) of the same molecule?
The Activity was “Dose-dependent effect”.

And the Activity (PC-3 [28])?
The Activity was 53.6%.

And the Activity (PC-3 [29])?
The Activity was 2.32%.

What about the Activity (PC-3 [30]) of the same molecule?
Its Activity is “Tde”.

And the Activity (PC-3 [31])?
Its Activity is 2.06%.

What about the Activity (DU-145 [32]) of the same molecule?
The Activity was 71.3%.
